T1: DmUCP4A (Drosophila melanogaster, UniProt Q9VX14)
T1 construct: gene Ucp4A
T1 sequence (Q9VX14 1-340): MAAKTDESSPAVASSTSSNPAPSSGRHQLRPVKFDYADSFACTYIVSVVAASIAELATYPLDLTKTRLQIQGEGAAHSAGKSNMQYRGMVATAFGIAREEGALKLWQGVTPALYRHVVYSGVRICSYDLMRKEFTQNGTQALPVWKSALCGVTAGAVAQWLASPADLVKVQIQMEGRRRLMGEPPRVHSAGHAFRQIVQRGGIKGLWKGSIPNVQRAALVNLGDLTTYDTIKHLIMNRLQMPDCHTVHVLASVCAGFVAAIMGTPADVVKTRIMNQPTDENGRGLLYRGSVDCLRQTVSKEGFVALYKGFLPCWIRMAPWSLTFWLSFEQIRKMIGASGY

B1: DmUCP4A (Drosophila melanogaster) (protein)
chain: T1 sequence (Q9VX14 1-340)

Substrate in the first data set: N[C@@H](CC(=O)O)C(=O)O
The data set can be described thus: purified protein. The following applies: aspartate/aspartate exchange, 10 mM internal aspartate, pH 6.5, 25 °C, labelled compound.
Turning to B1, the Km is 229.2 ± 12.64 µM.

The next data set concerns the target T1, DmUCP4A. Nature of the data set: inhibition of […]aspartate/aspartate exchange in proteoliposomes. It counts as biochemical. The following applies: 0.3 mM external [14C]aspartate, 10 mM internal aspartate, pH 6.5, 25 °C, 1 min.
As to `O=C(O)CCC(=O)C(=O)O` [2-oxoglutarate], the “% inhibition at 10 mM” value is “to a much lower extent by oxalate, maleate, 2-oxoglutarate, and cysteine sulfinate”.
On the same count and under the same terms, as for `N[C@@H](CS(=O)O)C(=O)O` [cysteine sulfinate], the entry is “to a much lower extent by oxalate, maleate, 2-oxoglutarate, and cysteine sulfinate”.
As to `CCCCC(C(=O)O)C(=O)O` [butylmalonate], the “% inhibition at 10 mM” value was “butylmalonate, and phenylsuccinate”.
On to `O=C(O)CC(C(=O)O)c1ccccc1` (stereo not drawn) [phenylsuccinate], for which the “% inhibition at 10 mM” value was “butylmalonate, and phenylsuccinate”.
Still for that read-out and setting: to `O=C(O)/C=C\C(=O)O` [maleate] belongs “to a much lower extent by oxalate, maleate, 2-oxoglutarate, and cysteine sulfinate”; to `c1ccc(-c2ccnc3c2ccc2c(-c4ccccc4)ccnc23)cc1` [bathophenanthroline], “The activity of DmUCP4A was strongly inhibited by BAT, PLP, and tannic acid”; to `Cc1ncc(COP(=O)(O)O)c(C=O)c1O` [pyridoxal-5′-phosphate], “The activity of DmUCP4A was strongly inhibited by BAT, PLP, and tannic acid”.

Still in this data set, the particulars now being: 0.3 mM external [14C]aspartate, 10 mM internal aspartate, pH 6.5, 25 °C, 1 min; added externally with labelled aspartate as potential competitor.
With `O=C(O)C(=O)O` [oxalate], the “% inhibition at 10 mM” value is “to a much lower extent by oxalate, maleate, 2-oxoglutarate, and cysteine sulfinate”.

Usually Km stands for the substrate concentration at which the rate is half of its maximum.

The record behind these values is publication PMC8834685 (International Journal of Molecular Sciences, 2022).
